In publication PMC6032158, “Structure–Activity Relationship of Piplartine and Synthetic Analogues against Schistosoma mansoni and Cytotoxicity to Mammalian Cells” (International Journal of Molecular Sciences, 2018):

What was measured:
[1] = test system: J774A.1 cells; test: Cell death mechanism, annexin-V FITC / propidium iodide staining by flow cytometry; type: cell-based, mouse; conditions: J774A.1, 24 h; piplartine 25 μg/mL, 14B 400 μg/mL
Protocol: Cells were then treated with 2 µL of annexin-V FITC (Apoptosis Detection Kit; BD Biosciences, Franklin Lakes, NJ, USA) and 2 µL of propidium iodide (PI, 50 µg/mL) for 15 min in the dark at room temperature. Next, 100 µL binding buffer was added and samples were analysed by flow cytometry (BD LSFortessa^TM, Franklin Lakes, NJ, USA). A total of 20,000 events were collected per sample.

[2] = test system: murine fibroblast (NIH-3T3) cells; test: MTT cytotoxicity assay in murine fibroblasts; type: cell-based; conditions: for effect on NIH-3T3 cell viability (in words): MTT, 24 h exposure, 25 to 800 µg/mL; for Emax at 800 µg/mL: Mus musculus, NIH3T3, 24 h, decrease in cell viability at the maximum concentration tested (800 μg/mL), NIH-3T3, 24 h
Protocol: Next, the medium was removed and various concentrations (25–800 µg/mL) of samples reconstituted in 3% DMSO were applied. DMSO (3%) was used as a control. The plates were incubated for 24 h. Next, 15 µL of MTT solution (5 mg/mL in phosphate buffer) was added to each well and the plates were incubated for 2 h. Medium was discarded and 100 µL of DMSO was added to each well. Absorbance was determined using a spectrophotometer with a microplate reader at 595 nm (Molecular Devices Corporation, Sunnyvale, CA, USA).

[3] = test system: 49-day-old S. mansoni adult worms; test: In vitro experiments with adult worms of S. mansoni (mortality, motor activity); type: cell-based, Schistosoma mansoni; conditions: for Dead Worms (%) F / Motor Activity Reduction (%) Significant F / Motor Activity Reduction (%) Slight F: female worms; for Dead Worms (%) M / Motor Activity Reduction (%) Significant M / Motor Activity Reduction (%) Slight M: male worms; for activity against S. mansoni adult worms (in words): analogues 50, 25, 10 and 5 μM, piplartine 5 and 10 μM, up to 96 h
Protocol: The Belo Horizonte (BH) strain of S. mansoni was maintained in Biomphalaria glabrata snails and Mesocricetus auratus hamsters at the Adolfo Lutz Institute (São Paulo, Brazil) according to standard procedures. Detailed methods for the infection of molluscs and hamsters, as well as for the recovery of parasites, were as described previously. Briefly, the intermediate host snails were exposed to light for approximately 3 h and cercariae of S. mansoni were subsequently harvested. […] All animals were handled in strict accordance with good animal practice as defined by the Animal Use Ethics Committee. The preparations and culture of schistosomes was performed as previously described. Briefly, hamsters were killed 49 days after infection for the recovery of adult schistosomes. Next, fresh adult worm pairs (male and female) were washed and placed in a 24-well culture plate (TPP, St. […] Adult schistosomes were maintained continuously in medium (with or without drugs) for 96 h as described below. In vitro assays in S. mansoni adults were performed with mated males and females. The worm pairs obtained from the infusion hamsters were washed twice with RPMI 1640 medium containing 200 U/mL penicillin, 200 μg/mL streptomycin and 2 μg/mL amphotericin B (Vitrocell, Campinas, Brazil). The mated parasites were then transferred into 24-well cell culture plates (TPP, St. […] Cultures of adult worms were monitored by microscopy or magnifying glass. The effect of the drug was assessed with emphasis on changes in worm motor activity and death of worms as previously described.

[4] = test system: mouse BALB/cN macrophage (J774A.1) cell line; test: Cell viability by flow cytometry in macrophages; conditions: 24 h, 25, 100 and 400 µg/mL, vs DMEM control

OO [Compound H2O2, hydrogen peroxide, reference compound]
annexin-V FITC staining (apoptosis marker) vs DMEM negative control (in words) [1]: significant (p < 0.05) increase in annexin-V FITC fluorescence intensity

O=C(/C=C/c1ccc([N+](=O)[O-])cc1)N(C(=O)NC1CCCCC1)C1CCCCC1 [Compound 6B]
effect on NIH-3T3 cell viability (in words) [2]: did not exert significant effects on mammalian cell viability at the tested concentrations
Emax at 800 µg/mL [2]: < 50%
Dead Worms (%) F ([3]; 5 µM, 14 h): 0%
Motor Activity Reduction (%) Significant F ([3]; 5 µM, 14 h): 0%
Motor Activity Reduction (%) Slight F ([3]; 5 µM, 14 h): 0%
Dead Worms (%) M ([3]; 5 µM, 14 h): 0%
Motor Activity Reduction (%) Significant M ([3]; 5 µM, 14 h): 0%
Motor Activity Reduction (%) Slight M ([3]; 5 µM, 14 h): 0%
Dead Worms (%) F ([3]; 5 µM, 48 h): 0%
Motor Activity Reduction (%) Significant F ([3]; 5 µM, 48 h): 0%
Motor Activity Reduction (%) Slight F ([3]; 5 µM, 48 h): 0%
Dead Worms (%) M ([3]; 5 µM, 48 h): 0%
Motor Activity Reduction (%) Significant M ([3]; 5 µM, 48 h): 0%
Motor Activity Reduction (%) Slight M ([3]; 5 µM, 48 h): 0%
Dead Worms (%) F ([3]; 5 µM, 72 h): 0%
Motor Activity Reduction (%) Significant F ([3]; 5 µM, 72 h): 0%
Motor Activity Reduction (%) Slight F ([3]; 5 µM, 72 h): 0%
Dead Worms (%) M ([3]; 5 µM, 72 h): 0%
Motor Activity Reduction (%) Significant M ([3]; 5 µM, 72 h): 0%
Motor Activity Reduction (%) Slight M ([3]; 5 µM, 72 h): 0%
Dead Worms (%) F ([3]; 5 µM, 96 h): 0%
Motor Activity Reduction (%) Significant F ([3]; 5 µM, 96 h): 0%
Motor Activity Reduction (%) Slight F ([3]; 5 µM, 96 h): 0%
Dead Worms (%) M ([3]; 5 µM, 96 h): 0%
Motor Activity Reduction (%) Significant M ([3]; 5 µM, 96 h): 0%
Motor Activity Reduction (%) Slight M ([3]; 5 µM, 96 h): 0%
Dead Worms (%) F ([3]; 10 µM, 24 h): 0%
Motor Activity Reduction (%) Significant F ([3]; 10 µM, 24 h): 0%
Motor Activity Reduction (%) Slight F ([3]; 10 µM, 24 h): 0%
Dead Worms (%) M ([3]; 10 µM, 24 h): 0%
Motor Activity Reduction (%) Significant M ([3]; 10 µM, 24 h): 0%
Motor Activity Reduction (%) Slight M ([3]; 10 µM, 24 h): 0%
Dead Worms (%) F ([3]; 10 µM, 48 h): 0%
Motor Activity Reduction (%) Significant F ([3]; 10 µM, 48 h): 0%
Motor Activity Reduction (%) Slight F ([3]; 10 µM, 48 h): 0%
Dead Worms (%) M ([3]; 10 µM, 48 h): 0%
Motor Activity Reduction (%) Significant M ([3]; 10 µM, 48 h): 0%
Motor Activity Reduction (%) Slight M ([3]; 10 µM, 48 h): 0%
Dead Worms (%) F ([3]; 10 µM, 72 h): 0%
Motor Activity Reduction (%) Significant F ([3]; 10 µM, 72 h): 0%
Motor Activity Reduction (%) Slight F ([3]; 10 µM, 72 h): 0%
Dead Worms (%) M ([3]; 10 µM, 72 h): 0%
Motor Activity Reduction (%) Significant M ([3]; 10 µM, 72 h): 0%
Motor Activity Reduction (%) Slight M ([3]; 10 µM, 72 h): 0%
Dead Worms (%) F ([3]; 10 µM, 96 h): 0%
Motor Activity Reduction (%) Significant F ([3]; 10 µM, 96 h): 0%
Motor Activity Reduction (%) Slight F ([3]; 10 µM, 96 h): 0%
Dead Worms (%) M ([3]; 10 µM, 96 h): 0%
Motor Activity Reduction (%) Significant M ([3]; 10 µM, 96 h): 0%
Motor Activity Reduction (%) Slight M ([3]; 10 µM, 96 h): 0%
Dead Worms (%) F ([3]; 25 µM, 24 h): 0%
Motor Activity Reduction (%) Significant F ([3]; 25 µM, 24 h): 0%
Motor Activity Reduction (%) Slight F ([3]; 25 µM, 24 h): 0%
Dead Worms (%) M ([3]; 25 µM, 24 h): 0%
Motor Activity Reduction (%) Significant M ([3]; 25 µM, 24 h): 0%
Motor Activity Reduction (%) Slight M ([3]; 25 µM, 24 h): 0%
Dead Worms (%) F ([3]; 25 µM, 48 h): 0%
Motor Activity Reduction (%) Significant F ([3]; 25 µM, 48 h): 0%
Motor Activity Reduction (%) Slight F ([3]; 25 µM, 48 h): 0%
Dead Worms (%) M ([3]; 25 µM, 48 h): 0%
Motor Activity Reduction (%) Significant M ([3]; 25 µM, 48 h): 0%
Motor Activity Reduction (%) Slight M ([3]; 25 µM, 48 h): 0%
Dead Worms (%) F ([3]; 25 µM, 72 h): 0%
Motor Activity Reduction (%) Significant F ([3]; 25 µM, 72 h): 0%
Motor Activity Reduction (%) Slight F ([3]; 25 µM, 72 h): 0%
Dead Worms (%) M ([3]; 25 µM, 72 h): 0%
Motor Activity Reduction (%) Significant M ([3]; 25 µM, 72 h): 0%
Motor Activity Reduction (%) Slight M ([3]; 25 µM, 72 h): 0%
Dead Worms (%) F ([3]; 25 µM, 96 h): 0%
Motor Activity Reduction (%) Significant F ([3]; 25 µM, 96 h): 0%
Motor Activity Reduction (%) Slight F ([3]; 25 µM, 96 h): 0%
Dead Worms (%) M ([3]; 25 µM, 96 h): 0%
Motor Activity Reduction (%) Significant M ([3]; 25 µM, 96 h): 0%
Motor Activity Reduction (%) Slight M ([3]; 25 µM, 96 h): 0%
Dead Worms (%) F ([3]; 50 µM, 24 h): 0%
Motor Activity Reduction (%) Significant F ([3]; 50 µM, 24 h): 0%
Motor Activity Reduction (%) Slight F ([3]; 50 µM, 24 h): 0%
Dead Worms (%) M ([3]; 50 µM, 24 h): 0%
Motor Activity Reduction (%) Significant M ([3]; 50 µM, 24 h): 0%
Motor Activity Reduction (%) Slight M ([3]; 50 µM, 24 h): 0%
Dead Worms (%) F ([3]; 50 µM, 48 h): 0%
Motor Activity Reduction (%) Significant F ([3]; 50 µM, 48 h): 0%
Motor Activity Reduction (%) Slight F ([3]; 50 µM, 48 h): 0%
Dead Worms (%) M ([3]; 50 µM, 48 h): 0%
Motor Activity Reduction (%) Significant M ([3]; 50 µM, 48 h): 0%
Motor Activity Reduction (%) Slight M ([3]; 50 µM, 48 h): 0%
Dead Worms (%) F ([3]; 50 µM, 72 h): 0%
Motor Activity Reduction (%) Significant F ([3]; 50 µM, 72 h): 0%
Motor Activity Reduction (%) Slight F ([3]; 50 µM, 72 h): 0%
Dead Worms (%) M ([3]; 50 µM, 72 h): 0%
Motor Activity Reduction (%) Significant M ([3]; 50 µM, 72 h): 0%
Motor Activity Reduction (%) Slight M ([3]; 50 µM, 72 h): 0%
Dead Worms (%) F ([3]; 50 µM, 96 h): 0%
Motor Activity Reduction (%) Significant F ([3]; 50 µM, 96 h): 0%
Motor Activity Reduction (%) Slight F ([3]; 50 µM, 96 h): 0%
Dead Worms (%) M ([3]; 50 µM, 96 h): 0%
Motor Activity Reduction (%) Significant M ([3]; 50 µM, 96 h): 0%
Motor Activity Reduction (%) Slight M ([3]; 50 µM, 96 h): 0%
activity against S. mansoni adult worms (in words) [3]: did not present biological activity against the S. mansoni parasite
effect on J774A.1 cell viability (in words) [4]: did not reduce cell viability at the same concentrations

CCCCOC(=O)/C=C/C=C/c1cc(OC)c(OC)c(OC)c1 [Compound 19A]
effect on NIH-3T3 cell viability (in words) [2]: did not exert significant effects on mammalian cell viability at the tested concentrations
Emax at 800 µg/mL [2]: < 50%
Dead Worms (%) F ([3]; 25 µM, 24 h): 0%
Motor Activity Reduction (%) Significant F ([3]; 25 µM, 24 h): 0%
Motor Activity Reduction (%) Slight F ([3]; 25 µM, 24 h): 0%
Dead Worms (%) M ([3]; 25 µM, 24 h): 0%
Motor Activity Reduction (%) Significant M ([3]; 25 µM, 24 h): 0%
Motor Activity Reduction (%) Slight M ([3]; 25 µM, 24 h): 0%
Dead Worms (%) F ([3]; 50 µM, 24 h): 0%
Motor Activity Reduction (%) Significant F ([3]; 50 µM, 24 h): 0%
Motor Activity Reduction (%) Slight F ([3]; 50 µM, 24 h): 0%
Dead Worms (%) M ([3]; 50 µM, 24 h): 0%
Motor Activity Reduction (%) Significant M ([3]; 50 µM, 24 h): 0%
Motor Activity Reduction (%) Slight M ([3]; 50 µM, 24 h): 0%
Dead Worms (%) F ([3]; 50 µM, 48 h): 0%
Motor Activity Reduction (%) Significant F ([3]; 50 µM, 48 h): 0%
Motor Activity Reduction (%) Slight F ([3]; 50 µM, 48 h): 0%
Dead Worms (%) M ([3]; 50 µM, 48 h): 0%
Motor Activity Reduction (%) Significant M ([3]; 50 µM, 48 h): 0%
Motor Activity Reduction (%) Slight M ([3]; 50 µM, 48 h): 0%
Dead Worms (%) F ([3]; 50 µM, 72 h): 0%
Motor Activity Reduction (%) Significant F ([3]; 50 µM, 72 h): 0%
Motor Activity Reduction (%) Slight F ([3]; 50 µM, 72 h): 0%
Dead Worms (%) M ([3]; 50 µM, 72 h): 0%
Motor Activity Reduction (%) Significant M ([3]; 50 µM, 72 h): 0%
Motor Activity Reduction (%) Slight M ([3]; 50 µM, 72 h): 0%
Dead Worms (%) F ([3]; 50 µM, 96 h): 0%
Motor Activity Reduction (%) Significant F ([3]; 50 µM, 96 h): 0%
Motor Activity Reduction (%) Slight F ([3]; 50 µM, 96 h): 0%
Dead Worms (%) M ([3]; 50 µM, 96 h): 0%
Motor Activity Reduction (%) Significant M ([3]; 50 µM, 96 h): 0%
Motor Activity Reduction (%) Slight M ([3]; 50 µM, 96 h): 0%
activity against S. mansoni adult worms (in words) [3]: loss of biological activity against S. mansoni
effect on J774A.1 cell viability (in words) [4]: did not reduce cell viability at the same concentrations
